According to patent US6090945A, “Tetrahydro-beta-carbolines” (Eli Lilly and Company, priority 1998, dated 2000):
pIC50: −log10 of the molar value. Structures can show the parent of a compound that is named as a salt. Where two headings read alike, the source gives them in different places.

Tests used:
5-HT1c receptor [1] = biological target: T1, 5-HT1c receptor (Bos taurus, UniProt A0AAA9SBU1); assay: 5-HT1c radioligand binding assay ([3H]mesulergine displacement); details: read-out: 5HT1C IC50 (binding displacement); choroid plexus; tritiated mesulergine 2.0 nM; 37° C., 15 minutes
T1 sequence (A0AAA9SBU1 33-457): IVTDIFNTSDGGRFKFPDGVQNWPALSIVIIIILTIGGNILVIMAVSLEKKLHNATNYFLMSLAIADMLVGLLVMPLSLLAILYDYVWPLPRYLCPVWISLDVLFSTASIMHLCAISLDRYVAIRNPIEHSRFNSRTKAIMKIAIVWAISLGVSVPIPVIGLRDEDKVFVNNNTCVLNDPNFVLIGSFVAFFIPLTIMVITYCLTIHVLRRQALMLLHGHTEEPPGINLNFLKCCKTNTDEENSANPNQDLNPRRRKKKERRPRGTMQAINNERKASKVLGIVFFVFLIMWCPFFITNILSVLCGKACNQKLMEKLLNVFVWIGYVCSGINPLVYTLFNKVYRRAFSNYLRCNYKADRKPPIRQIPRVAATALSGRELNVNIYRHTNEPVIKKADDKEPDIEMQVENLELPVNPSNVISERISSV
Description: I. Assay for 5-HT1c Affinity
(§1) Beef brain was removed immediately after slaughter, and choroid plexus were dissected over ice. […] Tissues were homogenized in 9 volumes of 0.32 mol/L sucrose and centrifuged at 1,000×g for 10 minutes. The supernatant was centrifuged at 17,000×g for 20 minutes. The pellet was suspended in 100 volumes of 50 mM Tris-HCl (pH7.4), incubated at 37° C. for 10 minutes and centrifuged at 50,000×g for 10 minutes, and the process was repeated three times. The final pellets were frozen at -70° C. and used within 2 weeks. Pellets were rehydrated with physiological buffer prior to use.
(§2) The reactions were terminated by rapid filtration, (Brandel Cell Harvestor), through Whatman GF/B glass filters that had been presoaked in Tris buffer pH 7.4. The filters were then washed 2 times with 5 ml of ice cold Tris buffer pH 7.4. Washed filters were placed in scintillation vials and 10 ml RedySolv, (Brandel), was added and samples were counted in a Searle D-300 beta counter. Means and standard error statistics were calculated for triplicate experimental determinations in certain cases. Mean values were obtained from three or more separate determinations. The incubation time for the reaction mixture was 15 minutes at 37° C.

5-HT2 receptor = 5-HT2 receptor (Rattus norvegicus, UniProt P14842); assay: 5-HT2 radioligand binding assay ([3H]ketanserin displacement); parameters: species or system rat (Sprague-Dawley cerebral cortex)
5-HT1c receptor [2] = assay: 5-HT1c radioligand binding assay ([3H]mesulergine displacement); details: versus 5-HT2, as shown by Table II
Description: I. Assay for 5-HT1c Affinity
as §1, §2

[3] = rat cerebral cortex, tritiated ketanserin 1 nM, 37° C., read-out: 5HT2 IC50 (binding displacement)

5-HT2 receptor, sequence (P14842 whole entry): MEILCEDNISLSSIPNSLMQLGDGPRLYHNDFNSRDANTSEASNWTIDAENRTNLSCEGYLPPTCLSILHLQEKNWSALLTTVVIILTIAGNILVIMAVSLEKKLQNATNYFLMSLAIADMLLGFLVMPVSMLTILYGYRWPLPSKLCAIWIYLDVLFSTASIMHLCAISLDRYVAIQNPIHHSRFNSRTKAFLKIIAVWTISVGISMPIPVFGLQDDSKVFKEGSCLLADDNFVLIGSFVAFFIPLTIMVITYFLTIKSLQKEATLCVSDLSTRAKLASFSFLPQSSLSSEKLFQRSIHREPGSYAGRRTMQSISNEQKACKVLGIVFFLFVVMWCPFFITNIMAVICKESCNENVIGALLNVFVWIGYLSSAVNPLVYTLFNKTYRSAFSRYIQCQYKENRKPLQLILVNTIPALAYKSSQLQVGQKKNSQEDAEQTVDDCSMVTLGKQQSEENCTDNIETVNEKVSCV

SMILES	pIC50 (5-HT1c receptor [1])	pIC50 (5-HT2 receptor; [3])	pIC50 (5-HT2 receptor)	5-HT1c selectivity (low IC50 in 5-HT1c assay, higher IC50 in 5-HT2 assay) (5-HT1c receptor [2])
CCc1ccc2[nH]c3c(c2c1)CCN[C@H]3[C@H](C)c1ccc(OC)c(OC)c1 (relative stereo) [Example 42, (±) 6-ethyl-1-[(3,4-dimethoxyphenyl)-1-ethyl]-1,2,3,4-tetrahydro-9H-pyrido[3,4-b]indole (Z)-2-butenedioate]	7.07	6.68	–	–
COc1ccc(CC2NCCc3c2[nH]c2c(C)cccc32)cc1OC (stereo not shown) [Example 1, 8-methyl-1-[(3,4-dimethoxyphenyl)methyl]-1,2,3,4-tetrahydro-9H-pyrido[3,4-b]indole]	6.67	6.51	–	–
COc1ccc(CC2NCCc3c2[nH]c2c(Br)cccc32)cc1OC (stereo not shown) [Example 2, 8-bromo-1-[(3,4-dimethoxyphenyl)methyl]-1,2,3,4-tetrahydro-9H-pyrido[3,4-b]indole hydrochloride]	7.47	–	7.17	–
COc1ccc(CC2NCCc3c2[nH]c2c(Br)cc(Br)cc32)cc1OC (stereo not shown) [Example 3, 6,8-dibromo-1-[(3,4-dimethoxyphenyl)methyl]-1,2,3,4-tetrahydro-9H-pyrido[3,4-b]indole]	7.54	6.05	–	particularly 5-HT1c selective
COc1ccc(CC2NCCc3c2[nH]c2c(Br)cc(C)cc32)cc1OC.Cl (stereo not shown) [Example 4, 6-methyl-8-bromo-1-[(3,4-dimethoxyphenyl)-methyl]-1,2,3,4-tetrahydro-9H-pyrido[3,4-b]indole hydrochloride]	7.70	–	6.88	particularly 5-HT1c selective
COc1ccc(CC2NCCc3c2[nH]c2c(OC)cccc32)cc1OC (stereo not shown) [Example 5, 8-methoxy-1-[(3,4-dimethoxyphenyl)methyl]-1,2,3,4-tetrahydro-9H-pyrido[3,4-]indole]	6.63	6.59	–	–
COc1ccc(CC2NCCc3c2[nH]c2ccc(C(C)(C)C)cc32)cc1OC (stereo not shown) [Example 8, 6-(1,1-dimethylethyl)-1-[(3,4-dimethoxyphenyl)methyl]1,2,3,4-tetrahydro-1-9H-pyrido-[3,4b]indole hydrochloride]	7.66	< 7.00	–	–
COc1ccc(CC2NCCc3c2[nH]c2ccc(C)c(F)c32)cc1OC (stereo not shown) [Example 9, 5-fluoro-6-methyl-1-[(3,4-dimethoxyphenyl)-methyl]-1,2,3,4-tetrahydro-9H-pyrido[3,4-b]indole]	7.74	6.85	–	–
COc1ccc(CC2NCCc3c2[nH]c2ccc(C4CCCCC4)cc32)cc1OC (stereo not shown) [Example 11, 6-cyclohexyl-1-[(3,4-dimethoxyphenyl)-methyl]-1,2,3,4-tetrahydro-9H-pyrido[3,4-b]indole hydrochloride]	6.44	–	< 6.00	–
COc1ccc(CC2NCCc3c2[nH]c2c(C)ccc(C)c32)cc1OC (stereo not shown) [Example 12, 5,8-dimethyl-1,2,3,4-tetrahydro-1-[(3,4-dimethoxyphenyl)methyl]-9H-pyrido[3,4b]indole hydrochloride]	7.82	< 7.00	–	–
COc1ccc(CC2NCCc3c2[nH]c2c(C)cc(C)cc32)cc1OC (stereo not shown) [Example 14, 6,8-dimethyl-1,2,3,4-tetrahydro-1-[(3,4-dimethoxyphenyl)methyl]-9H-pyrido[3,4b]indole hydrochloride]	7.47	< 7.00	–	–
CCc1ccc2[nH]c3c(c2c1)CCNC3Cc1ccc(OC)c(OC)c1 (stereo not shown) [Example 17, 6-ethyl-1,2,3,4-tetrahydro-1-[(3,4-dimethoxyphenyl)methyl]-9H-pyrido[3,4b]indole]	7.14	6.54	–	–
COc1ccc(CC2NCCc3c2[nH]c2ccc(Br)cc32)cc1OC (stereo not shown) [Example 18, 6-bromo-1,2,3,4-tetrahydro-1-[(3,4-dimethoxyphenyl)methyl]-9H-pyrido[3,4b]indole]	6.92	6.54	–	–
COc1ccc(CC2NCCc3c2[nH]c2c(C)c(C)ccc32)cc1OC (stereo not shown) [Example 19, 7,8-dimethyl-1,2,3,4-tetrahydro-1-[(3,4-dimethoxyphenyl)methyl]-9H-pyrido[3,4b]indole hydrochloride]	7.68	< 7.00	–	–
COc1ccc(CC2NCCc3c2[nH]c2ccc(C)cc32)cc1OC (stereo not shown) [Example 20, 6-methyl-1,2,3,4-tetrahydro-1-[(3,4-dimethoxyphenyl)methyl]-9H-pyrido[3,4b]indole hydrochloride]	7.00	6.89	–	–
COc1cc(CC2NCCc3c2[nH]c2ccc(C)cc32)cc(OC)c1OC (stereo not shown) [Example 21, 6-methyl-1-[(3,4,5-trimethoxyphenyl)-methyl]-1,2,3,4-tetrahydro-9H-pyrido[3,4-b]indole hydrochloride]	7.08	–	5.97	–

SMILES	pIC50 (5-HT1c receptor [1])	pIC50 (5-HT2 receptor; [3])	pIC50 (5-HT2 receptor)	5-HT1c selectivity (low IC50 in 5-HT1c assay, higher IC50 in 5-HT2 assay) (5-HT1c receptor [2])
COc1ccccc1CC1NCCc2c1[nH]c1ccc(C)cc21 (stereo not shown) [Example 23, 6-methyl-1-[(2-methoxyphenyl)methyl]-1,2,3,4-tetrahydro-9H-pyrido[3,4-b]indole hydrochloride]	7.24	–	–	–
COc1ccc(CC2NCCc3c2[nH]c2ccc(C)cc32)c(OC)c1 (stereo not shown) [Example 24, 6-methyl-1-[(2,4-dimethoxyphenyl)methyl]-1,2,3,4-tetrahydro-9H-pyrido[3,4-b]indole hydrochloride]	7.77	–	7.13	–
COc1ccc(OC)c(CC2NCCc3c2[nH]c2ccc(C)cc32)c1 (stereo not shown) [Example 25, 6-methyl-1-[(2,5-dimethoxyphenyl)methyl]-1,2,3,4-tetrahydro-9H-pyrido[3,4-b]indole hydrochloride]	7.10	–	–	–
COc1cc(OC)c(OC)cc1CC1NCCc2c1[nH]c1ccc(C)cc21 (stereo not shown) [Example 26, 6-methyl-1-[(2,4,5-trimethoxyphenyl)-methyl]-1,2,3,4-tetrahydro-9H-pyrido[3,4-b]indole hydrochloride]	7.28	–	–	–
COc1cc(CC2NCCc3c2[nH]c2ccc(C)cc32)cc([N+](=O)[O-])c1OC (stereo not shown) [Example 28, 6-methyl-1-[(3,4-dimethoxy-5-nitrophenyl)-methyl]-1,2,3,4-tetrahydro-9H-pyrido[3,4-b]indole hydrochloride]	6.39	–	6.00	–
COc1cc(CC2NCCc3c2[nH]c2ccc(C)cc32)cc(I)c1OC (stereo not shown) [Example 29, 6-methyl-1-[(3-iodo-4,5-dimethoxy-phenyl)-methyl]-1,2,3,4-tetrahydro-9H-pyrido[3,4-b]indole]	6.59	6.00	–	–
COc1cc(CC2NCCc3c2[nH]c2ccc(C)cc32)cc(N)c1OC (stereo not shown) [Example 30, 6-methyl-1-[(3,4-dimethoxy-5-amino-phenyl)-methyl]-1,2,3,4-tetrahydro-9H-pyrido[3,4-b]indole dihydrochloride]	6.65	–	6.10	–
CCCOc1ccc(CC2NCCc3c2[nH]c2ccc(C)cc32)cc1OC (stereo not shown) [Example 31, 6-methyl-1-[(3-methoxy-4-propoxyphenyl)-methyl]-1,2,3,4-tetrahydro-9H-pyrido[3,4-b]indole]	6.97	6.41	–	–
COc1ccc(CC2NCCc3c2[nH]c2ccc(C)cc32)cc1F (stereo not shown) [Example 34, 6-methyl-1-[(3-fluoro-4-methoxyphenyl)-methyl]-1,2,3,4-tetrahydro-9H-pyrido[3,4-b]indole hydrochloride]	7.02	–	6.60	–
Cc1ccc2[nH]c3c(c2c1)CCNC3Cc1ccc(C)c(C)c1 (stereo not shown) [Example 35, 6-methyl-1-[(3,4-dimethylphenyl)methyl]-1,2,3,4-tetrahydro-9H-pyrido[3,4-b]indole hydrochloride]	7.21	–	< 7.00	–
COc1ccc(CC2NCCc3c2[nH]c2ccc(C)cc32)c(Cl)c1OC (stereo not shown) [Example 36, 6-methyl-1-[(2-chloro-3,4-dimethoxyphenyl)-methyl]-1,2,3,4-tetrahydro-9H-pyrido[3,4-b]indole hydrochloride]	7.24	–	7.00	–
COc1c(O)ccc(CC2NCCc3c2[nH]c2ccc(C)cc32)c1Cl (stereo not shown) [Example 37, 6-methyl-1-[(2-chloro-3-methoxy-4-hydroxyphenyl)methyl]-1,2,3,4-tetrahydro-9H-pyrido[3,4-b]-indole hydrochloride]	7.54	–	7.00	–
COc1ccc(CC2NCCc3c2[nH]c2ccc(C)c(F)c32)c(Cl)c1OC (stereo not shown) [Example 38, 5-fluoro-6-methyl-1-[(2-chloro-3,4-dimethoxyphenyl)methyl]-1,2,3,4-tetrahydro-9H-pyrido[3,4-b]indole hydrochloride]	7.96	–	< 7.00	–
Cc1ccc2[nH]c3c(c2c1)CCNC3CC1CCCCC1 (stereo not shown) [Example 39, 6-methyl-1-(cyclohexylmethyl)-1,2,3,4-tetrahydro-9H-pyrido[3,4-b]indole hydrochloride]	6.30	–	6.21	–
COc1ccc(CC2c3[nH]c4ccc(C)cc4c3CCN2C)c(Cl)c1OC (stereo not shown) [Example 44, 2,6-dimethyl-1-[(2-chloro-3,4-dimethoxyphenyl)methyl]-1,2,3,4-tetrahydro-9H-pyrido[3,4-b]indole hydrochloride]	6.41	–	–	–
COc1ccc(CC2c3[nH]c4ccc(C(C)C)cc4c3CCN2C)cc1OC (stereo not shown) [Example 45, 2-methyl-6-(1-methylethyl)-1,2,3,4-tetrahydro-1-[(3,4-dimethoxyphenyl)methyl]-9H-pyrido-[3,4b]indole maleate]	6.34	–	–	–
